COc1ccc2nc(N3C(=O)C(O)=C(C(=O)c4ccc(C)o4)C3c3ccc(OC)c(O)c3)sc2c1 (stereo not drawn) [Compound 156] gave a melting point of 241 to 242 °C. With O=C(C1=C(O)C(=O)N(c2nc3ccc(Cl)cc3s2)C1c1ccc(F)cc1)C1CCC1 (stereo not drawn) [Compound 572] the melting point was 271 to 273 °C. Molecule COCC(=O)C1=C(O)C(=O)N(c2nc3ccc(Cl)cc3s2)C1c1ccc(F)cc1 (stereo not drawn) [Compound 442] has a melting point of 263 to 264 °C. With O=C(C1=C(O)C(=O)N(c2nc3ccc(F)cc3s2)C1c1ccccc1F)c1nccs1 (stereo not drawn) [Compound 437] the melting point was 298 to 299 °C. For Cc1ccc(C(=O)C2=C(O)C(=O)N(c3nc4c(Cl)cccc4s3)C2c2cccc3ccccc23)o1 (stereo not drawn) [Compound 619], the melting point was 249 to 250 °C. Work on CC(=O)NC(CC(C)C)C(=O)C1=C(O)C(=O)N(c2nc3ccc(Cl)cc3s2)C1c1ccc(F)cc1 (stereo not drawn) [Compound 647] yielded a melting point of 148 to 152 °C. In the case of CCOc1ccc2nc(N3C(=O)C(OC(C)=O)=C(C(=O)c4ccc(C)o4)C3c3ccc(OCCOC(C)=O)cc3)sc2c1 (stereo not drawn) [Compound 253], the melting point is reported as 114 to 115 °C. For CCOc1ccc2nc(N3C(=O)C(O)=C(C(=O)c4ccc(C)o4)C3C3CCOC3)sc2c1 (stereo not drawn) [Compound 190], the melting point was 185 to 186 °C. Work on O=C(C1=C(O)C(=O)N(c2nc3ccc(Cl)cc3s2)C1c1ccc(Cl)cc1)C1CC1 (stereo not drawn) [Compound 453] yielded a melting point of 245 to 246 °C. For Cc1ccc(C(=O)C2=C(O)C(=O)N(c3nc4ccc(F)cc4s3)C2c2ccc(OCc3ccccc3)cc2)o1 (stereo not drawn) [Compound 471], the melting point was 191 to 193 °C. O=C(C1=C(O)C(=O)N(c2nc3ccc(Cl)cc3s2)C1c1ccccc1F)C1CCC1 (stereo not drawn) [Compound 571] showed a melting point of 262 to 263 °C. In the case of COc1cc(C2C(C(=O)c3ccc(C)o3)=C(O)C(=O)N2c2nc3ccc(F)cc3s2)cc(OC)c1OC (stereo not drawn) [Compound 606], the melting point is reported as 244 to 245 °C. With CCOC(=O)CCC(=O)C1=C(O)C(=O)N(c2nc3c(Cl)cccc3s2)C1c1ccc(Cl)cc1 (stereo not drawn) [Compound 501] the melting point was 215 to 216 °C. For COc1ccc2nc(N3C(=O)C(O)=C(C(=O)c4ccc(C)o4)C3c3ccco3)sc2c1 (stereo not drawn) [Compound 153], the melting point was 240 to 242 °C. CCOc1ccc2nc(N3C(=O)C(O)=C(C(=O)c4ccc(C)o4)C3c3cccc(OCc4ccccc4)c3)sc2c1 (stereo not drawn) [Compound 186] gave a melting point of 214 to 215 °C. With CCc1ccc2nc(N3C(=O)C(O)=C(C(=O)c4ccc(C)o4)C3c3cccc(Cl)c3)sc2c1 (stereo not drawn) [Compound 136] the melting point was 174 to 177 °C. With Cc1ccc(C(=O)C2=C(O)C(=O)N(CCCN(CCCNC(=O)OC(C)(C)C)C(=O)OC(C)(C)C)C2c2ccc(F)cc2)o1 (stereo not drawn) [Compound 490] the melting point was 146 to 148 °C. CCc1ccc2nc(N3C(=O)C(O)=C(C(=O)c4ccc(C)o4)C3c3ccc(C(F)(F)F)cc3)sc2c1 (stereo not drawn) [Compound 137] gave a melting point of 138 to 140 °C. In the case of Cc1ccc(C(=O)C2=C(O)C(=O)N(c3nc4cccnc4s3)C2c2ccccc2F)o1 (stereo not drawn) [Compound 245], the melting point is reported as 227 to 229 °C. In the case of O=C(COc1ccccc1Cl)C1=C(O)C(=O)N(c2nc3ccc(F)cc3s2)C1c1ccc(F)cc1 (stereo not drawn) [Compound 459], the melting point is reported as 234 to 235 °C. Work on Cc1ccc(C(=O)C2=C(O)C(=O)N(c3ncc(C)s3)C2c2ccccc2F)o1 (stereo not drawn) [Compound 161] yielded a melting point of 251 to 252 °C. In the case of Cc1ccc(C(=O)C2=C(O)C(=O)N(c3nc4c(Cl)cccc4s3)C2c2ccc(C)o2)o1 (stereo not drawn) [Compound 610], the melting point is reported as 224 to 225 °C. With Cc1ccc(C(=O)C2=C(O)C(=O)N(c3nc4ccc(F)cc4s3)C2c2ccc3c(c2)OCCO3)o1 (stereo not drawn) [Compound 597] the melting point was 236 to 237 °C. Cc1ccc(C(=O)C2=C(O)C(=O)N(Cc3cccs3)C2c2ccccc2F)o1 (stereo not drawn) [Compound 504] showed a melting point of 193 to 194 °C. Cc1ccc(C(=O)C2=C(O)C(=O)N(c3ccncn3)C2c2ccccc2F)o1 (stereo not drawn) [Compound 189] gave a melting point of 235 to 236 °C. For Cc1ccc(C(=O)C2=C(O)C(=O)N(c3ncnc4[nH]ncc34)C2c2ccccc2F)o1 (stereo not drawn) [Compound 218], the melting point was 256 to 258 °C. With COc1ccc2nc(N3C(=O)C(O)=C(C(=O)c4ccc(C)o4)C3c3cccnc3)sc2c1 (stereo not drawn) [Compound 158] the melting point was 291 to 292 °C. In the case of Cc1ccc(C(=O)C2=C(O)C(=O)N(c3ccc4ncsc4c3)C2c2ccccc2F)o1 (stereo not drawn) [Compound 564], the melting point is reported as 231 to 232 °C. With O=C(C1=C(O)C(=O)N(c2nc3c(Cl)cccc3s2)C1c1ccc(F)cc1)c1nccs1 (stereo not drawn) [Compound 440] the melting point was 303 to 304 °C. In the case of COc1cccc(C2C(C(=O)c3ccc(C)o3)=C(O)C(=O)N2c2nc3ccc(F)cc3s2)c1 (stereo not drawn) [Compound 603], the melting point is reported as 201 to 202 °C. In the case of CCOC(=O)C1=C(O)C(=O)N(c2nc3ccc(Cl)cc3s2)C1c1ccc(F)cc1 (stereo not drawn) [Compound 422], the melting point is reported as 236 to 237 °C. Cc1ccc(C(=O)C2=C(O)C(=O)N(c3nc4ccc(F)cc4s3)C2c2ccccc2C)o1 (stereo not drawn) [Compound 627] showed a melting point of 214 to 215 °C. With Cc1ccc(C(=O)C2=C(O)C(=O)N(c3nc4ccc(F)cc4s3)C2c2ccc(Oc3ccccc3)cc2)o1 (stereo not drawn) [Compound 468] the melting point was 172 to 173 °C. Molecule Cc1ccc(C(=O)C2=C(O)C(=O)N(c3nc4ccc(Cl)cc4s3)C2c2ccc(OCCCN(C)C)cc2)o1 (stereo not drawn) [Compound 479] has a melting point of 211 to 213 °C. Cc1ccc(C(=O)C2=C(O)C(=O)N(c3ncccn3)C2c2ccccc2F)o1 (stereo not drawn) [Compound 188] gave a melting point of 249 to 250 °C. Molecule CCOc1ccc2nc(N3C(=O)C(O)=C(C(=O)c4ccc(C)o4)C3c3ccc(-c4cccc([N+](=O)[O-])c4)o3)sc2c1 (stereo not drawn) [Compound 256] has a melting point of 187 to 188 °C. With Cc1ccc(C(=O)C2=C(O)C(=O)N(Cc3ccco3)C2c2ccc(F)cc2)o1 (stereo not drawn) [Compound 503] the melting point was 213 to 214 °C. Molecule COc1ccc2nc(N3C(=O)C(O)=C(C(=O)c4ccc(C)o4)C3c3ccccn3)sc2c1 (stereo not drawn) [Compound 157] has a melting point of 240 to 241 °C. Cc1ccc(C(=O)C2=C(O)C(=O)N(c3nc4ccc(Cl)cc4s3)C2c2cccc3ccccc23)o1 (stereo not drawn) [Compound 617] showed a melting point of 260 to 261 °C. O=C(C1=C(O)C(=O)N(c2nc3ccc(F)cc3s2)C1c1ccc(F)cc1)C1CC1 (stereo not drawn) [Compound 455] gave a melting point of 221 to 223 °C. With CCc1ccc2nc(N3C(=O)C(O)=C(C(=O)c4ccc(C)o4)C3c3ccccc3F)sc2c1 (stereo not drawn) [Compound 138] the melting point was 165 to 169 °C. Work on CCc1ccc2nc(N3C(=O)C(O)=C(C(=O)c4ccc(C)o4)C3c3ccc(C(C)C)cc3)sc2c1 (stereo not drawn) [Compound 135] yielded a melting point of 220 to 222 °C. With Cc1ccc(C(=O)C2=C(O)C(=O)N(c3nc4cccnc4s3)C2c2cccc(C#N)c2)o1 (stereo not drawn) [Compound 246] the melting point was 251 to 252 °C. COc1ccc2nc(N3C(=O)C(O)=C(C(=O)c4ccc(C)o4)C3c3cccc(O)c3)sc2c1 (stereo not drawn) [Compound 155] gave a melting point of 263 to 264 °C. Molecule Cc1ccc(C(=O)C2=C(O)C(=O)N(c3nc4c(Cl)cccc4s3)C2c2ccc(OCc3ccccc3)cc2)o1 (stereo not drawn) [Compound 472] has a melting point of 240 to 241 °C. CCOC(=O)CCC(=O)C1=C(O)C(=O)N(c2nc3c(Cl)cccc3s2)C1c1ccc(F)cc1 (stereo not drawn) [Compound 500] gave a melting point of 178 to 179 °C. COCCOc1ccc(CCC(=O)C2=C(O)C(=O)N(c3nc4ccc(Cl)cc4s3)C2c2ccc(F)cc2)cc1 (stereo not drawn) [Compound 576] showed a melting point of 226 to 227 °C. Molecule O=C(C1=C(O)C(=O)N(c2nc3c(Cl)cccc3s2)C1c1ccccc1F)c1nccs1 (stereo not drawn) [Compound 439] has a melting point of 320 to 321 °C. Molecule O=C(C1=C(O)C(=O)N(c2nc3ccc(Cl)cc3s2)C1c1ccccc1F)C1CC1 (stereo not drawn) [Compound 451] has a melting point of 246 to 247 °C. Molecule O=C(C1=C(O)C(=O)N(c2nc3ccc(Cl)cc3s2)C1c1ccccc1F)C1CC2C=CC1C2 (stereo not drawn) [Compound 579] has a melting point of 205 to 206 °C. For CCOC(=O)CCC(=O)C1=C(O)C(=O)N(c2nc3ccc(F)cc3s2)C1c1ccc(F)cc1 (stereo not drawn) [Compound 497], the melting point was 201 to 202 °C. For Cc1ccc(C(=O)C2=C(O)C(=O)N(c3nc4ccc(Cl)cc4s3)C2c2ccc(F)c(F)c2)o1 (stereo not drawn) [Compound 461, 1-(6-Chlorobenzo[d]thiazol-2-yl)-5-(3,4-difluorophenyl)-3-hydroxy-4-(5-methylfuran-2-carbonyl)-1H-pyrrol-2(5H)-one], the melting point was 235 to 236 °C. O=C(COc1ccccc1)C1=C(O)C(=O)N(c2nc3c(Cl)cccc3s2)C1c1ccccc1F (stereo not drawn) [Compound 449] gave a melting point of 131 to 133 °C. Work on O=C(COc1ccccc1)C1=C(O)C(=O)N(c2nc3ccc(Cl)cc3s2)C1c1ccc(F)cc1 (stereo not drawn) [Compound 447] yielded a melting point of 203 to 204 °C. Cc1ccc(C(=O)C2=C(O)C(=O)N(c3nc4ccc(F)cc4s3)C2c2ccc(-c3ccccc3)cc2)o1 (stereo not drawn) [Compound 465] gave a melting point of 228 to 231 °C. Work on COc1ccccc1CC(=O)C1=C(O)C(=O)N(c2nc3ccc(F)cc3s2)C1c1ccc(F)cc1 (stereo not drawn) [Compound 485] yielded a melting point of 223 to 224 °C. With Cc1ccc(C(=O)C2=C(O)C(=O)N(c3nc4ccc(Cl)cc4s3)C2c2cccc([N+](=O)[O-])c2)o1 (stereo not drawn) [Compound 139] the melting point was over 300 °C. Cc1ccc(C(=O)C2=C(O)C(=O)N(c3nc4ccc(Cl)cc4s3)C2c2cccc(F)c2F)o1 (stereo not drawn) [Compound 623] showed a melting point of 253 to 254 °C. For Cc1ccc(C(=O)C2=C(O)C(=O)N(c3nc4ccc(S(C)(=O)=O)cc4s3)C2C2CCOC2)o1 (stereo not drawn) [Compound 180], the melting point was 199 to 200 °C. Molecule CC(=O)NC(CC(C)C)C(=O)C1=C(O)C(=O)N(c2nc3ccc(F)cc3s2)C1c1ccc(Cl)cc1 (stereo not drawn) [Compound 649] has a melting point of 266 to 269 °C. Cc1ccc(C(=O)C2=C(O)C(=O)N(c3nc4ccc(F)cc4s3)C2c2cccc(OCc3ccccc3)c2)o1 (stereo not drawn) [Compound 476] gave a melting point of 187 to 188 °C. For O=C(O)CCC(=O)C1=C(O)C(=O)N(c2nc3ccc(Cl)cc3s2)C1c1ccc(F)cc1 (stereo not drawn) [Compound 569], the melting point was 262 to 263 °C. For CCOC(=O)CCC(=O)C1=C(O)C(=O)N(c2nc3ccc(Cl)cc3s2)C1c1ccc(F)cc1 (stereo not drawn) [Compound 494], the melting point was 224 to 225 °C. Molecule CCOc1ccc2nc(N3C(=O)C(O)=C(C(=O)c4ccc(C)o4)C3c3ccc(O)c(C(=O)O)c3)sc2c1 (stereo not drawn) [Compound 254] has a melting point of 251 to 252 °C. Molecule Cc1ccc(C(=O)C2=C(O)C(=O)N(c3nc4ccc(Cl)cc4s3)C2c2ccc3c(c2)OCCO3)o1 (stereo not drawn) [Compound 596] has a melting point of 236 to 237 °C. Cc1ccc(C(=O)C2=C(O)C(=O)N(c3nc4c(Cl)cccc4s3)C2c2ccc(Oc3ccccc3)cc2)o1 (stereo not drawn) [Compound 469] gave a melting point of 208 to 209 °C.
